Where “and” joins values, the source holds several entries; their conditions need not be identical. Identical values can stand only once. Entries after “also recorded” stand apart in the source; their conditions may differ.
Experiments:
[1] = In-life observations: body weight, gross findings before and at necropsy; type: in vivo, Male Fischer 344/N rats; conditions: individual animals; for Initial Body Wt.: 48 hours group, baseline weight
Procedure: Doses were determined with pilot experiments. […] Serum was collected for clinical chemistry.

[2] = test system: liver; assay: Liver histopathology (H&E sections of left liver lobe, severity graded) after a single dose
Procedure: The animals were acclimated for 14 days and observed for absence of disease.
Doses were determined with pilot experiments. For each chemical, doses that elicited a sub-toxic ('low'), a moderately toxic ('medium') or a overtly toxic ('high') response 24 hours after treatment were selected. […] For each compound, control animal groups were treated with vehicle alone. All animals were fasted for 12-18 hours prior to exposure. Groups of four to six animals were dosed between 8:30 and 9:30 a.m.; thereafter, feed was provided ad libitum. After 6, 24 or 48 hours of treatment, animals were anesthetized by isoflurane anesthesia. Whole blood was collected via retro-orbital plexus for hematology and gene expression analysis. Serum was collected for clinical chemistry. The animals were euthanized while under anesthesia by cervical dislocation and necropsied within 4 minutes of sacrifice. The left liver lobe was promptly removed and two defined cross sections were placed in 10% neutral buffered formalin for subsequent histopathology.
The cross sections that were fixed by immersion in 10% neutral buffered formalin (see 'In-life studies' section above) were transferred to histology grade alcohol for 18-24 hours after necropsy. Tissues were then processed, embedded in paraffin, sectioned at 5 microns, and stained with hematoxylin and eosin. A pathologist completed the initial microscopic evaluation of each liver sample for a given compound. […] An independent pathology quality assessment review was performed by a second pathologist on the initial histopathological findings.

[3] = 15 mg/kg, gavage in corn oil, 48 hours after single dose
[4] = 50 mg/kg, gavage in corn oil, 48 hours after single dose
[5] = 150 mg/kg, gavage in corn oil, 48 hours after single dose
[6] = Gavage, corn oil, 15 mg/kg, 6 hours
[7] = Gavage, corn oil, 15 mg/kg, 24 hours
[8] = Gavage, corn oil, 50 mg/kg, 6 hours
[9] = Gavage, corn oil, 50 mg/kg, 24 hours
[10] = Gavage, corn oil, 150 mg/kg, 6 hours
[11] = Gavage, corn oil, 150 mg/kg, 24 hours

In the case of CC(=N)S [Thioacetamide], the “Gross Findings” value ([1]; 15 mg/kg, gavage in corn oil, 48 hours after single dose, at necropsy) is reported as “No Gross Findings”, the “Clin/Ob Prior to Necropsy” value [1, 3] is reported as “Ungroomed appearance” and the “Final Body Wt.” value [1, 3] is reported as 264.10 g and 257.60 g and 259.00 g and 263.10 g. For the same molecule, the “Gross Findings” value ([1]; 50 mg/kg, gavage in corn oil, 48 hours after single dose, at necropsy) was “Liver left and median lobes rough surface mild; also recorded: Liver left lobe rough surface mild, median lobe pale rough surface mild; also recorded: Liver left and median lobes pale, mildly firm, rough surface”, the “Clin/Ob Prior to Necropsy” value [1, 4] was “Piloerection; also recorded: Ungroomed appearance” and the “Final Body Wt.” value [1, 4] was 233.00 g and 228.70 g and 248.40 g and 236.30 g. The “Gross Findings” value ([1]; 150 mg/kg, gavage in corn oil, 48 hours after single dose, at necropsy) was “Liver left and median lobes pale, firm, rough surface mild; Kidney red medulla; also recorded: Liver left and median lobes pale, minimally firm, rough surface mild”, the “Clin/Ob Prior to Necropsy” value [1, 5] was “Ungroomed appearance; piloerection; hunched posture; red fur discoloration (cranial dorsum); also recorded: Ungroomed appearance; piloerection; hunched posture; red nasal discharge” and the “Final Body Wt.” value [1, 5] was 230.90 g and 232.40 g and 228.10 g and 228.50 g. For the same molecule, the “Clin/Ob Prior to Necropsy” value [1, 6] was “Normal”, the “Gross Findings” value [1, 6] was “No Gross Findings” and the “Clin/Ob Prior to Necropsy” value [1, 7] was “Normal”. The “Final Body Wt.” value [1, 7] was 261.90 g and 245.50 g and 259.10 g and 269.60 g, the “Gross Findings” value [1, 7] was “No Gross Findings; also recorded: Liver median lobe rough surface minimal” and the “Clin/Ob Prior to Necropsy” value [1, 8] was “Normal”. The “Gross Findings” value [1, 8] was “Liver left lobe mottled; also recorded: No Gross Findings”, the “Clin/Ob Prior to Necropsy” value [1, 9] was “Ungroomed appearance; also recorded: Normal” and the “Final Body Wt.” value [1, 9] was 231.40 g and 233.80 g and 239.30 g and 227.90 g. The “Gross Findings” value [1, 9] was “No Gross Findings; also recorded: Liver left lobe rough surface mild, median lobe rough surface minimal; also recorded: Liver left lobe rough surface minimal, median lobe rough surface mild”, the “Clin/Ob Prior to Necropsy” value [1, 10] was “Normal” and the “Gross Findings” value [1, 10] was “Liver left lobe mottled; also recorded: No Gross Findings”. The “Clin/Ob Prior to Necropsy” value [1, 11] was “Normal; also recorded: Red nasal discharge”, the “Final Body Wt.” value [1, 11] was 222.50 g and 236.40 g and 240.60 g and the “Gross Findings” value [1, 11] was “Liver left and median lobes rough surface mild; also recorded: Liver left lobe mottled rough surface minimal, median lobe rough surface mild”. For the same molecule, the “Initial Body Wt.” value ([1]; thioacetamide 15 mg/kg, gavage in corn oil) was 244.40 g and 241.70 g and 243.00 g and 244.10 g, the “Initial Body Wt.” value ([1]; thioacetamide 50 mg/kg, gavage in corn oil) was 243.30 g and 241.60 g and 248.50 g and 241.50 g and the “Initial Body Wt.” value ([1]; thioacetamide 150 mg/kg, gavage in corn oil) was 240.40 g and 246.90 g and 242.10 g and 241.40 g. The biliary hyperplasia ([2]; 48 hours) was “evoked biliary hyperplasia”, the “extent of hepatocellular necrosis, amount of inflammatory cell infiltrates and/or indications of hepatocellular repair (mitosis) across animals” value ([2]; high dose, 48 hour) was “variability” and the “Primary site of livery injury” value ([2]; rat, single administration) was “Centrilobular”.
